Where two headings read alike, the source gives them in different places.
Tests used:
[1] = tested on: Colletotrichum lagenarium; experiment: Action against Colletotrichum lagenarium on Cucumis sativus L., soil application; assay type: in vivo
[2] = tested on: Phytophthora infestans; assay type: in vivo
[3] = tested on: Colletotrichum sp.; experiment: Action against Colletotrichum sp. (anthracnose) on chili, field; assay type: in vivo; settings: Table 16, chili fruits after fifth spraying, comp. I alone 5 ppm
From the text: Effects on crop yield: In a plot of land about 10 m^2 (test location: Cikampek, Java, Indonesia), chili plants were sprayed a total of 7 times at intervals of about 7 days with 500-700 liters of spray mixture per hectare. Three days after the first spraying, the plants were infected artificially with the fungus.

[4] = tested on: Erysiphe graminis; experiment: Action against Erysiphe graminis in wheat, field trials
Method: In field trials (10 m^2), winter wheat in the growth phase was sprayed with a spray mixture prepared with a wettable powder of the active ingredient. Infection was naturally. 10 days post-infection, the fungus infestation was assessed.

[5] = tested on: Cercospora sp.; experiment: Action against Cercospora sp. (leaf spot) on chili, field; assay type: in vivo; settings: Table 17, leaves after sixth spraying, comp. I alone 5 ppm
[6] = tested on: Erysiphe graminis; experiment: Action against Erysiphe graminis on barley (residual-protective / systemic)
Method: Residual-protective action: Barley plants about 8 cm in height were sprayed to drip point with an aqueous spray mixture (max. 0.02 % active ingredient) and were dusted 3 to 4 days later with conidia of the fungus. The infected plants were stood in a greenhouse at 22°. Fungus infestation was generally evaluated 10 days after infection.
Systemic action: Barley plants about 8 cm in height were watered with an aqueous spray mixture (max. 0.002 % active ingredient, based on the volume of the soil). […] The plants were dusted with conidia of the fungus 3 to 4 days later. The infected plants were stood in a greenhouse at 22°. Fungus infestation was generally evaluated 10 days after infection.

[7] = tested on: Peronospora parasitica Emwa; experiment: Action against Peronospora parasitica Emwa in Arabidopsis thaliana (Ws), rRNA fungal probe; assay type: in vivo; settings: Hyaloperonospora parasitica, in Arabidopsis thaliana; for inhibition at 10 µM: BTH alone 0.01 mM
[8] = tested on: Pyricularia oryzae; assay type: in vivo
[9] = tested on: Peronospora tabacina; experiment: Action against Peronospora tabacina on tobacco plants
Method: Tobacco plants (6 weeks old) were sprayed with a formulated solution of the test compound. Four days after treatment, the plants were inoculated with a sporangia suspension of the fungus, kept at high humidity for 4 to 5 days and then incubated further under a normal day/night sequence. Evaluation of the symptoms in the tests was based on the leaf surface infested with fungus. The infestation of the untreated plants corresponded to 0 % action.

[10] = tested on: Puccinia recondita; experiment: Action against Puccinia recondita in wheat; settings: Table 19, comp. I alone 100 mg a.i. per liter
Method: 7-day-old wheat plants were sprayed to drip point with a spray mixture prepared from a formulated active ingredient, or combination of active ingredients. After 4 days, the treated plants were infected with a conidia suspension of the fungus, and the treated plants were subsequently incubated for 2 days at a relative atmospheric humidity of 90-100% and 20 C. 10 days post-infection, the fungus infestation was assessed.

[11] = tested on: Peronospora parasitica NoCo2; experiment: whole plant or invertebrate; assay type: in vivo; settings: Hyaloperonospora parasitica, in Arabidopsis thaliana
[12] = tested on: Mycosphaerella fijiensis; experiment: Action against Mycosphaerella fijiensis in bananas; settings: Table 23, comp. I alone 50 g a.i. per ha
Method: 40 banana plants in a 300 m^2 plot were sprayed at 17-19 day intervals with a spray mixture prepared with the wettable powder of the active ingredient; in total 6 times. Infection was naturally. For evaluation, the leaf infested with the fungus was measured.

[13] = tested on: Peronospora parasitica NoCo2; experiment: Action against Peronospora parasitica NoCo2 in Arabidopsis thaliana (Col-0), rRNA fungal probe; assay type: in vivo; settings: Table 29, Col-0, BTH alone 0.01 mM
[14] = Action on crop yield of chili, field; assay type: in vivo; settings: Table 18, harvest after sixth spraying, comp. I alone 5 ppm
[15] = tested on: Pyricularia oryzae; assay type: in vivo; remark: listed apart in the source
[16] = tested on: Peronospora parasitica isolate Emwa; experiment: Fungal resistance to Peronospora parasitica Emwa after BTH treatment, Ws and NIM1-overexpressing lines; assay type: in vivo; settings: 10 μM BTH
[17] = tested on: PR-1 gene expression; experiment: Northern analysis of PR-1 gene expression after BTH treatment, Ws and NIM1-overexpressing lines; assay type: in vivo, Arabidopsis thaliana; settings: for PR-1 gene expression: 10 μM BTH
[18] = tested on: Cercospora nicotianae; experiment: Action against Cercospora nicotianae on tobacco plants; assay type: in vivo
[19] = tested on: Pyricularia oryzae; assay type: in vivo; settings: Table 13, comp. I alone 6 ppm
[20] = tested on: Alternaria solani; experiment: Action against Alternaria solani in tomatoes in the open; settings: Table 24, comp. I alone 2.5 g a.i. per ha
Method: Tomato plants on a 7 m^2 plot were sprayed at 7-day intervals with a spray mixture prepared wettable powder of the active ingredient; in total 9 times. Infection was naturally. For ion, the leaf infested with the fungus was measured.

[21] = tested on: Pseudomonas syringae DC3000; experiment: Infection with Pseudomonas syringae DC3000 in Arabidopsis, Example 17; settings: wild-type plants pretreated with INA (0.25 mg/ml)
Method: Six-week-old wild-type (±INA treatment), and cim3 plants were inoculated with a suspension of P. syringae DC3000 and the progress of the disease was followed by monitoring the growth of the bacteria extracted from infected leaves over time. […] The plants were also visually inspected for disease symptoms.
For this example, cultures of Pseudomonas syringae pv. tomato strain DC3000 were grown on King's B media (agar plates or liquid) plus rifampicin (50 jig/ml) at 28° C. […] An overnight culture was diluted and resuspended in 10 mM MgCT2 to a density of 2-5×10^5 cells per ml and injected into Arabidopsis leaves. Injections were carried out by creating a small hole with a 28 gauge needle midway up the leaf and then injecting approximately 250 μl of the diluted bacterial solution with a 1 cc syringe. At various time points, 10 random samples consisting of 3 random leaf punches from a #1 cork borer were taken from 10 plants from each treatment. The 3 leaf punches were placed in an eppendorf tube with 300 μl of 10 MM MgCl2 and ground with a pestle. The resulting bacterial suspension was appropriately diluted and plated on King's B media plus rifampicin (50 μg/ml) and grown for 4 days at 28° C. Bacterial colonies were counted and the data were subjected to Student's t statistical analysis (Sokal and Rohlf (1981), Biometry, 2nd ed. New York: W.H. Freeman and Company). […]

[22] = tested on: Peronospora parasitica (NoCo2); experiment: Resistance to Peronospora parasitica (NoCo2) in Arabidopsis, Example 17; assay type: in vivo; settings: wild type Col-0 plants treated with INA 0.25 mg/ml, seven days after inoculation

CSC(=O)c1cccc2nnsc12 [BTH]
% action O (observed) ([1]; Table 8, comp. I alone 0.02 ppm): 6% | % action O (observed) ([1]; Table 8, comp. I alone 0.2 ppm): 36% | % action O (observed) ([1]; Table 8, test 1, comp. I alone 0.06 ppm): 0% | % action O (observed) ([1]; Table 8, test 3, comp. I alone 0.06 ppm): 23% | % action O (observed) ([2]; Table 25, comp. I alone 5 mg a.i. per liter): 14% | % action O (observed) ([2]; Table 25, comp. I alone 25 mg a.i. per liter): 36% | % action O (observed) ([2]; Table 25, comp. I alone 100 mg a.i. per liter): 61% | % action O (observed) ([2]; Table 25, comp. I alone 500 mg a.i. per liter): 72% | % action O (observed) [3]: 55% | % action O (observed) ([4]; Table 21, comp. I alone 5 g a.i. per ha): 29% | % action O (observed) ([4]; Table 22, comp. I alone 5 g a.i. per ha): 29% | % action O (observed) [5]: 76% | % action O (observed) ([6]; Table 3, comp. I alone 0.6 ppm): 14% | % action O (observed) ([6]; Table 3, comp. I alone 2 ppm): 33% | inhibition at 3 µM ([7]; Table 30, Ws, BTH alone 0.003 mM, read-out: Fungal Growth Inhibition % O (observed)): 0% | inhibition at 10 µM ([7]; Table 30, Ws, read-out: Fungal Growth Inhibition % O (observed)): 20% | inhibition at 10 µM ([7]; Table 31, Ws, read-out: Fungal Growth Inhibition % O (observed)): 30% | inhibition at 10 µM ([7]; Table 32, Ws, read-out: Fungal Growth Inhibition % O (observed)): 30% | inhibition at 10 µM ([7]; text summary of Tables 30-32, Ws plants, read-out: fungal growth inhibition): 20 to 30% | % action O (observed) ([8]; Table 15, comp. I alone 0.05 ppm): 5% | % action O (observed) ([8]; Table 15, comp. I alone 0.1 ppm): 18% | % action O (observed) ([8]; Table 15, comp. I alone 0.25 ppm): 39% | % action O (observed) ([8]; Table 15, comp. I alone 0.5 ppm): 65% | % action O (observed) ([9]; Table 28, comp. I alone 0.03 ppm): 14% | % action O (observed) ([9]; Table 28, comp. I alone 0.1 ppm): 34% | % action O (observed) ([9]; Table 28, comp. I alone 0.3 ppm): 88% | % action O (observed) [10]: 51% | inhibition at 30 µM ([11]; read-out: Fungal Growth Inhibition % O (observed), Table 34, wt Col-0, BTH 0.03 mM): 20.8% | inhibition at 100 µM ([11]; read-out: Fungal Growth Inhibition % O (observed), Table 34, wt Col-0, BTH 0.1 mM): 85.7% | % action O (observed) [12]: 19% | inhibition at 10 µM ([13]; Hyaloperonospora parasitica, in Arabidopsis thaliana, read-out: Fungal Growth Inhibition % O (observed)): 0% | Fungal Growth Inhibition % O (observed) [13]: no fungal growth inhibition | Crop yield in kg per hectare O (observed) [14]: 459 kg per hectare | % action O (observed) ([15]; Table 14, comp. I alone 0.25 kg a.i. per ha): 22% | % action O (observed) ([15]; Table 14, comp. I alone 0.5 kg a.i. per ha): 50% | resistance to P. parasitica ([16]; NIM1-overexpressing lines): complete or almost complete resistance | susceptibility to P. parasitica (Emwa) ([16]; wild-type Ws plants): still susceptible | PR-1 gene expression in leaf tissue ([17]; NIM1-overexpressing lines relative to wild-type, 100 μM BTH): much stronger and quicker | PR-1 gene expression ([17]; NIM1-overexpressing lines): much stronger response | PR-1 gene expression ([17]; wild-type Ws line): barely detectable | % action O (observed) ([18]; Table 9, comp. I alone 0.2 ppm): 0% | % action O (observed) ([18]; Table 9, comp. I alone 2 ppm): 17% | % action O (observed) ([18]; Table 9, comp. I alone 6 ppm): 55% | % action O (observed) ([18]; Table 9, comp. I alone 20 ppm): 78% | % action O (observed) ([18]; Table 10, comp. I alone 0.2 ppm): 0% | % action O (observed) ([18]; Table 10, comp. I alone 2 ppm): 17% | % action O (observed) ([18]; Table 10, comp. I alone 6 ppm): 55% | % action O (observed) ([18]; Table 10, comp. I alone 20 ppm): 78% | % action O (observed) [19]: 15% | % action O (observed) [20]: 32%

O=C(O)c1cc(Cl)nc(Cl)c1 [INA, 2,6-dichloroisonicotinic acid]
disease symptoms (visual inspection) [21]: nearly devoid of disease symptoms | fungal growth (trypan blue, sporulation) [22]: no fungal growth
